Source: patent US10299478B2, “Pyrazolyltriazolylpyridines as pesticides” (BAYER ANIMAL HEALTH GMBH, priority 2014, dated 2019)

What was measured:
Assay type in all cases: in vivo
[1] = system: adult dog ticks (Rhipicephalus sanguineus); test: Rhipicephalus sanguineus in vitro contact test with adult brown dog ticks; details: coated test tube, after 48 h
Method: Rhipicephalus sanguineus-In Vitro Contact Tests with Adult Brown Dog Ticks
(§1) For the coating of the test tubes, 9 mg of active compound are first dissolved in 1 ml of acetone p.a. and then diluted to the desired concentration with acetone p.a. 250 μl of the solution are distributed homogeneously on the inner walls and the base of a 25 ml test tube by turning and rocking on an orbital shaker (rocking rotation at 30 rpm for 2 h). With 900 ppm active compound solution and internal surface 44.7 cm^2, given homogeneous distribution, an area-based dose of 5 μg/cm^2 is achieved.
After the solvent has evaporated off, the tubes are populated with 5-10 adult dog ticks (Rhipicephalus sanguineus), sealed with a perforated plastic lid and incubated in a horizontal position in the dark at room temperature and ambient humidity. After 48 h, efficacy is determined. To this end, the ticks are knocked to the floor of the tube and incubated on a hotplate at 45-50° C. for not more than 5 min. Ticks which remain motionless on the floor or move in such an uncoordinated manner that they are unable to deliberately avoid the heat by climbing upwards are considered to be dead or moribund.
An efficacy of 100% means that all the ticks were dead or moribund. 0% efficacy means that none of the ticks had been harmed.

[2] = system: cattle ticks (Boophilus microplus) Parkhurst strain, SP-resistant; test: Boophilus microplus dip test; details: application rate 100 ppm, assessed after 7 days
Method: Boophilus microplus-Dip Test
• Test animals: cattle ticks (Boophilus microplus) Parkhurst strain, SP-resistant • Solvent: dimethyl sulphoxide
10 mg of active ingredient are dissolved in 0.5 ml of dimethyl sulphoxide. For the purpose of producing a suitable formulation, the active compound solution is diluted with water to the concentration desired in each case.
This active ingredient formulation is pipetted into tubes. 8-10 engorged adult female cattle ticks (Boophilus microplus) are transferred into a further tube with holes. The tube is immersed into the active compound preparation, and all the ticks are completely wetted. After the liquid has run out, the ticks are transferred on filter discs into plastic dishes and stored in a climate-controlled room.
(§2) Efficacy is assessed after 7 days by laying of fertile eggs. Eggs which are not visibly fertile are stored in a climate-controlled cabinet until the larvae hatch after about 42 days. An efficacy of 100% means that none of the ticks has laid any fertile eggs; 0% means that all the eggs are fertile.

[3] = system: engorged adult female cattle ticks (Boophilus microplus); test: Boophilus microplus injection test; details: application rate 20 μg/animal; injection into the abdomen; assessed after 7 days
Method: Boophilus microplus-Injection Test
(§3) • Solvent: dimethyl sulphoxide
To produce an appropriate active ingredient formulation, 10 mg of active ingredient are mixed with 0.5 ml of solvent and the concentrate is diluted with solvent to the desired concentration.
1 μl of the active ingredient solution is injected into the abdomen of 5 engorged adult female cattle ticks (Boophilus microplus). The animals are transferred into dishes and kept in a climate-controlled room.
as §2

[4] = system: larvae of the mustard beetle (Phaedon cochleariae); test: Phaedon cochleariae spray test; details: application rate 100 g/ha; Chinese cabbage leaf discs sprayed; after 7 days
Method: Phaedon cochleariae-Spray Test
(§4) • Solvent: 78.0 parts by weight of acetone • 1.5 parts by weight of dimethylformamide • Emulsifier: alkylaryl polyglycol ether
(§5) To produce an appropriate active ingredient formulation, 1 part by weight of active ingredient is dissolved using the specified parts by weight of solvent and made up with water containing an emulsifier concentration of 1000 ppm until the desired concentration is attained. To produce further test concentrations, the preparation is diluted with emulsifier-containing water.
Discs of Chinese cabbage leaves (Brassica pekinensis) are sprayed with an active ingredient formulation of the desired concentration and, after drying, populated with larvae of the mustard beetle (Phaedon cochleariae).
After 7 days, efficacy in % is determined. 100% means that all the beetle larvae have been killed; 0% means that no beetle larvae have been killed.

[5] = system: greenhouse red spider mite (Tetranychus urticae); test: Tetranychus urticae spray test, OP-resistant; details: application rate 100 g/ha; bean leaf discs sprayed; after 6 days
Method: Tetranychus urticae-Spray Test, OP-Resistant
as §4, §5
Discs of bean leaves (Phaseolus vulgaris) infested by all stages of the greenhouse red spider mite (Tetranychus urticae) are sprayed with an active ingredient formulation of the desired concentration.
After 6 days, efficacy in % is determined. 100% means that all the spider mites have been killed; 0% means that no spider mites have been killed.

[6] = system: unfed adult cat fleas (Ctenocephalides felis); test: Ctenocephalides felis oral test; details: application rate 100 ppm, in citrated cattle blood, after 2 days
Method: Ctenocephalides felis-Oral Test
as §3
To produce a suitable preparation of active compound, 10 mg of active compound are mixed with 0.5 ml of dimethyl sulphoxide. Dilution with citrated cattle blood gives the desired concentration.
About 20 unfed adult cat fleas (Ctenocephalides felis) are placed into a chamber which is closed at the top and bottom with gauze. A metal cylinder whose bottom end is closed with parafilm is placed onto the chamber. The cylinder contains the blood/active compound preparation, which can be imbibed by the fleas through the parafilm membrane.
After 2 days, the kill in % is determined. 100% means that all of the fleas have been killed; 0% means that none of the fleas have been killed.

[7] = system: Tick nymphs (Amblyomma hebraeum); test: Amblyomma hebaraeum test; details: application rate 100 ppm; nymphs immersed for one minute; after 42 days
Method: as §3
(§6) To produce an appropriate active ingredient formulation, 10 mg of active ingredient are mixed with 0.5 ml of dimethyl sulphoxide, and the concentrate is diluted with water to the desired concentration.
Tick nymphs (Amblyomma hebraeum) are placed into perforated plastic beakers and immersed in the desired concentration for one minute. The ticks are transferred on filter paper into a Petri dish and stored in a climate-controlled cabinet.
After 42 days, the kill in % is determined. 100% means that all of the ticks have been killed; 0% means that none of the ticks have been killed.

[8] = system: green peach aphid (Myzus persicae); test: Myzus persicae spray test; details: application rate 100 g/ha; Chinese cabbage leaf discs sprayed; after 6 days
Method: Myzus persicae-Spray Test
• Solvent: 78 parts by weight of acetone • 1.5 parts by weight of dimethylformamide • Emulsifier: alkylaryl polyglycol ether
as §5
Discs of Chinese cabbage leaves (Brassica pekinensis) infested by all stages of the green peach aphid (Myzus persicae) are sprayed with an active compound preparation of the desired concentration.
After 6 days, efficacy in % is determined. 100% means that all the aphids have been killed; 0% means that no aphids have been killed.

[9] = system: caterpillars of the armyworm (Spodoptera frugiperda); test: Spodoptera frugiperda spray test; details: application rate 100 g/ha; maize leaf discs sprayed; after 7 days
Method: Spodoptera frugiperda-Spray Test
as §4, §5
Leaf discs of maize (Zea mays) are sprayed with an active ingredient formulation of the desired concentration and, after drying, populated with caterpillars of the armyworm (Spodoptera frugiperda).
After 7 days, efficacy in % is determined. 100% means that all the caterpillars have been killed; 0% means that no caterpillars have been killed.

[10] = system: adult houseflies (Musca domestica); test: Musca domestica test; details: application rate 100 ppm; sponge with sugar solution; after 2 days
Method: as §3, §6
Vessels containing a sponge treated with sugar solution and the active ingredient formulation of the desired concentration are populated with 10 adult houseflies (Musca domestica).
After 2 days, the kill in % is determined. 100% means that all of the flies have been killed; 0% means that none of the flies have been killed.

[11] = system: L1 larvae of the Australian sheep blowfly (Lucilia cuprina); test: Lucilia cuprina test; details: application rate 100 ppm; minced horsemeat; after 2 days
Method: as §3, §6
About 20 L1 larvae of the Australian sheep blowfly (Lucilia cuprina) are transferred into a test vessel containing minced horsemeat and the active ingredient preparation of the desired concentration.
After 2 days, the kill in % is determined. 100% means that all the larvae have been killed; 0% means that no larvae have been killed.

[12] = system: adult cat fleas (Ctenocephalides felis); test: Ctenocephalides felis in vitro contact test with adult cat fleas; details: application rate 500 g/ha; coated test tube; after 48 h
Method: Ctenocephalides felis—In Vitro Contact Tests with Adult Cat Fleas
as §1, with “[…]” for “μg/cm^2”
After the solvent has evaporated off, the tubes are populated with 5-10 adult cat fleas (Ctenocephalides felis), sealed with a perforated plastic lid and incubated in a horizontal position at room temperature and ambient humidity. After 48 h, efficacy is determined. To this end, the test tubes are stood upright and the fleas are knocked to the base of the tube. Fleas which remain motionless at the base or move in an uncoordinated manner are considered to be dead or moribund.
100% efficacy means that all the fleas were dead or moribund. 0% efficacy means that no fleas were harmed.

[13] = system: southern root-knot nematode (Meloidogyne incognita); test: Meloidogyne incognita test; details: application rate 20 ppm; lettuce in sand; after 14 days
Method: Meloidogyne incognita Test
• Solvent: 125.0 parts by weight of acetone
To produce an appropriate active ingredient formulation, 1 part by weight of active ingredient is mixed with the stated amount of solvent and the concentrate is diluted with water to the desired concentration.
Vessels are filled with sand, active ingredient solution, an egg/larvae suspension of the southern root-knot nematode (Meloidogyne incognita) and lettuce seeds. The lettuce seeds germinate and the plants develop. The galls develop on the roots.
After 14 days, the nematicidal efficacy in % is determined by the formation of galls. 100% means that no galls were found; 0% means that the number of galls on the treated plants corresponds to the untreated control.

Row | SMILES | efficacy (ticks dead or moribund) ([1]; application rate 100 g/ha) [%] | efficacy (laying of fertile eggs) [2] [%] | efficacy (laying of fertile eggs) [3] [%] | efficacy (beetle larvae killed) [4] [%] | efficacy (spider mites killed) [5] [%] | efficacy (kill of fleas) [6] [%] | efficacy (kill of ticks) [7] [%] | efficacy (aphids killed) [8] [%] | efficacy (caterpillars killed) [9] [%] | efficacy (kill of flies) [10] [%] | efficacy (kill of larvae) [11] [%] | efficacy (fleas dead or moribund) [12] [%] | nematicidal efficacy (formation of galls) [13] [%] | efficacy (ticks dead or moribund) ([1]; application rate 20 g/ha) [%]
1 | Cn1nc(C(F)(F)C(F)(F)F)c(C(F)(F)F)c1-n1cc(-c2cnc(Cl)c(C(=O)NC3(C#N)CC3)c2)nn1 [Ia-1] | 100 | 100 | 100 | 100 | 90 | 100 | 100 | – | – | – | – | – | – | –
2 | Cn1nc(C(F)(F)C(F)(F)F)c(C(F)(F)F)c1-n1cc(-c2cnc(Cl)c(C(=O)NC3CC3)c2)nn1 [Ia-2, 2-Chloro-N-cyclopropyl-5-[1-[2-methyl-5-(1,1,2,2,2-pentafluoroethyl)-4-(trifluoromethyl)pyrazol-3-yl]triazol-4-yl]pyridine-3-carboxamide] | 100 | 100 | 100 | 100 | 100 | 100 | 100 | 90 | 100 | 100 | 100 | – | – | –
3 | Cc1ncc(-c2cn(-c3c(C(F)(F)F)c(C(F)(F)C(F)(F)F)nn3C)nn2)cc1C(=O)NC1(C#N)CC1 [Ia-3] | 100 | – | 100 | 100 | 100 | 100 | – | 100 | – | 80 | 95 | 100 | – | –
4 | Cc1ncc(-c2cn(-c3c(C(F)(F)F)c(C(F)(F)C(F)(F)F)nn3C)nn2)cc1C(=O)NC1CC1 [Ia-4] | 100 | 100 | 100 | 100 | 100 | 100 | 100 | 90 | 100 | 100 | 100 | 100 | 90 | –
5 | COc1ncc(-c2cn(-c3c(C(F)(F)F)c(C(F)(F)C(F)(F)F)nn3C)nn2)cc1C(=O)NC1(C#N)CC1 [Ia-5] | 100 | – | 100 | 100 | – | 100 | – | – | 100 | 100 | 100 | – | – | –
6 | COc1ncc(-c2cn(-c3c(C(F)(F)F)c(C(F)(F)C(F)(F)F)nn3C)nn2)cc1C(=O)NC1CC1 [Ia-6] | – | – | 100 | 100 | – | 100 | – | – | – | 100 | 100 | – | – | 80
